# Measured values taken from US20240116985A1, “STAPLED PEPTIDES AND METHODS THEREOF” (priority 2020, published 2024).
# Where two headings read alike, the source gives them in different places.
# Experiments:
# [1] = biological target: T1, full-length beta-Catenin (Uniprot ID P35222) (Homo sapiens, UniProt P35222); assay: Fluorescence polarization IC50 (beta-catenin / 5FAM-TCF4 10-53 competition); format: binding
# T1 construct: 10 nM full-length beta-Catenin (Uniprot ID P35222)
# T1 sequence (P35222 1-781): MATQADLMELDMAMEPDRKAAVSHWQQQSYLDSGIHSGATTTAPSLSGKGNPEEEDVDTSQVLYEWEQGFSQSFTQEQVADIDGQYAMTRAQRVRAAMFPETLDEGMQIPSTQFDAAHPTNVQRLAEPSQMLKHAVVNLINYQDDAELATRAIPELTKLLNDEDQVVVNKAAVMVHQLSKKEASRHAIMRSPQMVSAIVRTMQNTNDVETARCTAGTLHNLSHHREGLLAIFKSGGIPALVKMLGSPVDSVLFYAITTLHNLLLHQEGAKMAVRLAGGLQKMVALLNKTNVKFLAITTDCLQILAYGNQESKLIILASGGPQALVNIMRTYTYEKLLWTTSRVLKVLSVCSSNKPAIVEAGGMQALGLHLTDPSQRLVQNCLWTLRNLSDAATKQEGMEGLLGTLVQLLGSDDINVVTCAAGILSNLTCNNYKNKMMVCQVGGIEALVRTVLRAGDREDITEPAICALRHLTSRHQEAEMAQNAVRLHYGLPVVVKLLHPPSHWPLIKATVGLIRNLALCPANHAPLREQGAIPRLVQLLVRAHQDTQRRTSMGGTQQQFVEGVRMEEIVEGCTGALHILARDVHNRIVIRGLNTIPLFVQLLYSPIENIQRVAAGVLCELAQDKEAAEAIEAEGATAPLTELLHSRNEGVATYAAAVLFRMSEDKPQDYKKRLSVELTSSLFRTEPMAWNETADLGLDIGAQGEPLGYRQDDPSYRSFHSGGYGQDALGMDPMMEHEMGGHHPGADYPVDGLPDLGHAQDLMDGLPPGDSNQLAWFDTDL
# [2] = CHI Log D procedure; format: physicochemical; conditions: for CHI Log D: pH 7.4
# [3] = Solubility in PBS; format: physicochemical
# In short: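 Read-out is the HPLC peak area of the supernatant from ultracentrifuged PBS solution, scaled against a 50 μM peptide DMSO injection; value reported as [(PBS area)/(DMSO area)]*50 uM.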
# [4] = fluorescence polarization, beta-catenin, read-out: FP EC50
# [5] = Table E2-1, read-out: beta-Catenin FP IC50
# [6] = fluorescence polarization, read-out: beta-Catenin FP IC50
SMILES,"IC50 [1, 4]",CHI Log D [2],Solubility [3],"IC50 [1, 5]","IC50 [1, 6]","chromatographic logD ([2]; pH 7.4, CHI Log D)"
"CC(=O)N1CCC[C@]12CC=CCCCC1(CCCC=CCCCCCC[C@@](C)(C(=O)N[C@@H](Cc3ccccc3)C(=O)N[C@@H](Cc3csc4ccccc34)C(=O)N[C@@H](CCC(N)=O)C(N)=O)NC(=O)[C@H](C)NC(=O)[C@H](Cc3cccc(C(F)(F)F)c3)NC(=O)[C@H](C)NC(=O)[C@H](C)NC(=O)[C@H](CC(=O)O)NC(=O)[C@H](CC(=O)O)NC1=O)NC(=O)[C@H](C)NC(=O)[C@H](CC(=O)O)NC2=O (stereo partly drawn) [I-375, Ac-PL3-Asp-Ala-B5-Asp-Asp-Ala-Ala-3F3MeF-Ala-S8-Phe-BztA-Gln-NH2]",3010 nM,2.242,49 µM,,,
"CC(=O)N1CCC[C@]12CC=CCCCC1(CCCC=CCCCCCC[C@@](C)(C(=O)N[C@@H](Cc3ccccc3)C(=O)N[C@@H](Cc3csc4ccccc34)C(=O)N[C@@H](CCC(N)=O)C(N)=O)NC(=O)[C@H](C)NC(=O)[C@H](Cc3cccc(C(F)(F)F)c3)NC(=O)[C@H](C)NC(=O)[C@H](C)NC(=O)[C@H](CC(=O)O)NC(=O)[C@H](CC(=O)O)NC1=O)NC(=O)[C@H](C)NC(=O)[C@H](CC(=O)O)NC2=O (stereo partly drawn) [I-376, Ac-PL3-Asp-Ala-B5-Asp-Asp-Ala-Ala-3F3MeF-Ala-S8-Phe-BztA-Gln-NH2]",1320 nM,2.296,48 µM,1320 nM,,
"CC(=O)N1CCC[C@]12CC=CCCCC1(CCCC=CCCCCCC[C@@](C)(C(=O)N[C@@H](Cc3ccccc3)C(=O)N[C@@H](Cc3csc4ccccc34)C(=O)N[C@@H](CCC(N)=O)C(N)=O)NC(=O)[C@H](C)NC(=O)[C@H](Cc3cccc(C(F)(F)F)c3)NC(=O)[C@H](C)NC(=O)[C@H](C)NC(=O)[C@H](CC(=O)O)NC(=O)[C@H](CC(=O)O)NC1=O)NC(=O)[C@H](C)NC(=O)[C@H](CC(=O)O)NC2=O (stereo partly drawn) [I-377, Ac-PL3-Asp-Ala-B5-Asp-Asp-Ala-Ala-3F3MeF-Ala-S8-Phe-BztA-Gln-NH2]",1320 nM,2.296,48 µM,,,
"CC(=O)N1CCC[C@]12CC=CCCCC1(CCCC=CCCCCCC[C@@](C)(C(=O)N[C@@H](Cc3ccccc3)C(=O)N[C@@H](Cc3csc4ccccc34)C(=O)N[C@@H](CCC(N)=O)C(N)=O)NC(=O)[C@H](CCC(N)=O)NC(=O)[C@H](Cc3cccc(C(F)(F)F)c3)NC(=O)[C@H](C)NC(=O)[C@H](C)NC(=O)[C@H](CC(=O)O)NC(=O)[C@H](CC(=O)O)NC1=O)NC(=O)[C@H](C)NC(=O)[C@H](CC(=O)O)NC2=O (stereo partly drawn) [I-378, Ac-PL3-Asp-Ala-B5-Asp-Asp-Ala-Ala-3F3MeF-Gln-S8-Phe-BztA-Gln-NH2]",1340 nM,2.143,50 µM,1340 nM,,
"CC(=O)N1CCC[C@]12CC=CCCCC1(CCCC=CCCCCCC[C@@](C)(C(=O)N[C@@H](Cc3ccccc3)C(=O)N[C@@H](Cc3csc4ccccc34)C(=O)N[C@@H](CCC(N)=O)C(N)=O)NC(=O)[C@H](CCC(N)=O)NC(=O)[C@H](Cc3cccc(C(F)(F)F)c3)NC(=O)[C@H](C)NC(=O)[C@H](C)NC(=O)[C@H](CC(=O)O)NC(=O)[C@H](CC(=O)O)NC1=O)NC(=O)[C@H](C)NC(=O)[C@H](CC(=O)O)NC2=O (stereo partly drawn) [I-379, Ac-PL3-Asp-Ala-B5-Asp-Asp-Ala-Ala-3F3MeF-Gln-S8-Phe-BztA-Gln-NH2]",1340 nM,2.143,50 µM,,,
"CC(=O)N1CCC[C@]12CC=CCCCC1(CCCC=CCCCCCC[C@@](C)(C(=O)N[C@@H](Cc3ccccc3)C(=O)N[C@@H](Cc3csc4ccccc34)C(=O)N[C@@H](CCC(N)=O)C(N)=O)NC(=O)[C@H](CCC(N)=O)NC(=O)[C@H](Cc3cccc(C(F)(F)F)c3)NC(=O)[C@H](C)NC(=O)[C@H](C)NC(=O)[C@H](CC(=O)O)NC(=O)[C@H](CC(=O)O)NC1=O)NC(=O)[C@H](C)NC(=O)[C@H](CC(=O)O)NC2=O (stereo partly drawn) [I-380, Ac-PL3-Asp-Ala-B5-Asp-Asp-Ala-Ala-3F3MeF-Gln-S8-Phe-BztA-Gln-NH2]",552 nM,2.19,49 µM,552 nM,,
"CC(=O)N1CCC[C@]12CC=CCCCC1(CCCC=CCCCCCC[C@@](C)(C(=O)N[C@@H](Cc3cccc(F)c3)C(=O)N[C@@H](Cc3csc4ccccc34)C(=O)N[C@@H](CCC(N)=O)C(N)=O)NC(=O)[C@H](C(C)C)NC(=O)[C@H](Cc3ccccc3)NC(=O)[C@H](C)NC(=O)[C@H](C)NC(=O)[C@H](CC(N)=O)NC(=O)[C@H](CC(=O)O)NC1=O)NC(=O)[C@H](C)NC(=O)[C@H](CC(=O)O)NC2=O (stereo partly drawn) [I-381, Ac-PL3-Asp-Ala-B5-Asp-Asn-Ala-Ala-Phe-Val-S8-3FF-BztA-Gln-NH2]",3650 nM,2.636,10 µM,3650 nM,,
"CC(=O)N1CCC[C@]12CC=CCCCC1(CCCC=CCCCCCC[C@@](C)(C(=O)N[C@@H](Cc3cccc(F)c3)C(=O)N[C@@H](Cc3csc4ccccc34)C(=O)N[C@@H](CCC(N)=O)C(N)=O)NC(=O)[C@H](C(C)C)NC(=O)[C@H](Cc3ccccc3)NC(=O)[C@H](C)NC(=O)[C@H](C)NC(=O)[C@H](CC(N)=O)NC(=O)[C@H](CC(=O)O)NC1=O)NC(=O)[C@H](C)NC(=O)[C@H](CC(=O)O)NC2=O (stereo partly drawn) [I-382, Ac-PL3-Asp-Ala-B5-Asp-Asn-Ala-Ala-Phe-Val-S8-3FF-BztA-Gln-NH2]",2060 nM,2.631,10 µM,2060 nM,,
"CC(=O)N1CCC[C@]12CC=CCCCC1(CCCC=CCCCCCC[C@@](C)(C(=O)N[C@@H](Cc3ccccn3)C(=O)N[C@@H](Cc3csc4ccccc34)C(=O)N[C@@H](CCC(N)=O)C(N)=O)NC(=O)[C@H](C(C)C)NC(=O)[C@H](Cc3ccccc3)NC(=O)[C@H](C)NC(=O)[C@H](C)NC(=O)[C@H](CCC(=O)O)NC(=O)[C@H](CC(=O)O)NC1=O)NC(=O)[C@H](C)NC(=O)[C@H](CC(=O)O)NC2=O (stereo partly drawn) [I-384, Ac-PL3-Asp-Ala-B5-Asp-Glu-Ala-Ala-Phe-Val-S8-2pyrA-BztA-Gln-NH2]",177 nM,1.837,45 µM,177 nM,,
"CC(=O)N1CCC[C@]12CC=CCCCC1(CCCC=CCCCCCC[C@@](C)(C(=O)N[C@@H](Cc3ccncc3)C(=O)N[C@@H](Cc3csc4ccccc34)C(=O)N[C@@H](CCC(N)=O)C(N)=O)NC(=O)[C@H](C(C)C)NC(=O)[C@H](Cc3ccccc3)NC(=O)[C@H](C)NC(=O)[C@H](C)NC(=O)[C@H](CCC(=O)O)NC(=O)[C@H](CC(=O)O)NC1=O)NC(=O)[C@H](C)NC(=O)[C@H](CC(=O)O)NC2=O (stereo partly drawn) [I-385, Ac-PL3-Asp-Ala-B5-Asp-Glu-Ala-Ala-Phe-Val-S8-4pyrA-BztA-Gln-NH2]",,,50 µM,,3150 nM,1.71
"CC(=O)N1CCC[C@]12CC=CCCCC1(CCCC=CCCCCCC[C@@](C)(C(=O)N[C@@H](Cc3ccccc3)C(=O)N[C@@H](Cc3csc4ccccc34)C(=O)N[C@@H](CCC(N)=O)C(N)=O)NC(=O)[C@H](C(C)C)NC(=O)[C@H](Cc3ccccn3)NC(=O)[C@H](C)NC(=O)[C@H](C)NC(=O)[C@H](CCC(=O)O)NC(=O)[C@H](CC(=O)O)NC1=O)NC(=O)[C@H](C)NC(=O)[C@H](CC(=O)O)NC2=O (stereo partly drawn) [I-387, Ac-PL3-Asp-Ala-B5-Asp-Glu-Ala-Ala-2pyrA-Val-S8-Phe-BztA-Gln-NH2]",2620 nM,2.136,48 µM,,2620 nM,
"CC(=O)N1CCC[C@]12CC=CCCCC1(CCCC=CCCCCCC[C@@](C)(C(=O)N[C@@H](Cc3ccccc3)C(=O)N[C@@H](Cc3csc4ccccc34)C(=O)N[C@@H](CCC(N)=O)C(N)=O)NC(=O)[C@H](C(C)C)NC(=O)[C@H](Cc3cccc(F)c3F)NC(=O)[C@H](C)NC(=O)[C@H](C)NC(=O)[C@H](CCC(=O)O)NC(=O)[C@H](CC(=O)O)NC1=O)NC(=O)[C@H](C)NC(=O)[C@H](CC(=O)O)NC2=O (stereo partly drawn) [I-390, Ac-PL3-Asp-Ala-B5-Asp-Glu-Ala-Ala-23FF-Val-S8-Phe-BztA-Gln-NH2]",3420 nM,2.587,10 µM,,3420 nM,
